Results on six molecules are retold here after US20250282799A1, “SUBSTITUTED PYRIDO[4,3-d]PYRIMIDINES AS KRAS MODULATORS” (Alterome Therapeutics, Inc., priority 2023, published 2025).

For one experiment, the target named is KRAS (G12V)/CRAF (Homo sapiens (Human), UniProt P01116, G12V). The experiment can be described thus: TR-FRET biochemical KRAS:CRAF protein:protein interaction assay, KRAS (G12V). The experiment is classed as binding. To be noted: GMPPNP loaded Biotin-KRAS (G12V), FLAG CRAF RBD; read-out: TR-Fret_PPI KRAS (G12V)/CRAF IC50. The procedure: (§1) The effect of test compounds on KRAS and CRAF protein: protein interaction (PPI) was measured by time resolved fluorescence resonance energy transfer (TR-FRET) Ras binding domain (RBD) assay, which uses a signal generated through fluorescent resonance energy transfer between a donor and an acceptor molecule when in close proximity to each other. Interference from buffer, media, etc. is reduced by dual-wavelength detection; the energy pulse from the excitation source is followed by a time delay, which allows interfering short-lived fluorescence to decay (Degorce et al. 2009).
KRAS (G12V)/CRAF, sequence (P01116-2 other isoform, or with tags, fused parts or gaps G12V): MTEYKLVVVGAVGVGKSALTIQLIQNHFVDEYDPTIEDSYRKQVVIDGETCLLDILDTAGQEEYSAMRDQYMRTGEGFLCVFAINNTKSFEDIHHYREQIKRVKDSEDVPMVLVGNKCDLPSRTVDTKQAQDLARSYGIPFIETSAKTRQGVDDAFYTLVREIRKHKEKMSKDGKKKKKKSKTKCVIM
(§2) The KRAS: CRAF PPI assay can be utilized to identify KRAS ‘ON’ state inhibitors, as the KRAS protein is loaded with GMPPNP (a non-hydrolyzable GTP analog), which represents the active KRAS ‘ON’ state. FLAG-tagged CRAF RBD binding to the GMPPNP loaded biotin-tagged KRAS will result in a fluorescence energy transfer from the donor (Tb-anti-FLAG, emission 620 nm) to the acceptor (SA-XL665, emission 665 nm). Disruption of KRAS and CRAF binding will reduce the TR-FRET signal.
(§3) Test compound was dissolved in DMSO to create a 1 mM stock solution. A 45 μL volume of stock solution was transferred to a 384well polypropylene plate. A 3fold, 10point dilution was performed by transferring 15 μL of test compound solution into 30 μL of DMSO.
(§4) Assay buffer A was prepared with […] Hepes, pH7.3, 0.002% Tween 20, 0.1% BSA, […] NaCl, 5 mM MgCl2, and 10 uM GMP-PNP. 4× KRAS Solution was prepared with 80 nM of Biotin-KRAS (G12D/V), GMPPNP loaded or Biotin-KRAS (WT), GMPPNP loaded protein in assay buffer A. 4× Raf RBD Solution was prepared with 400 nM FLAG CRAF RBD in assay buffer A. 2× Detection Mixture was prepared with 2 nM Tb-anti-FLAG antibody and 10 nM and 10 nM SA-XL665 in assay buffer A.
(§5) A volume of 100 nL of 100× test compound working solution or DMSO vehicle control solution was dispensed to each well (duplicate for each concentration) of a 384-well ProxiPlate Plus assay plate. A volume of 2.5 μL of 4× KRAS Solution was added to each well of the assay plate for a final concentration of 20 nM Biotin-KRAS (G12D/V),GMPPNP loaded or 20 nM Biotin-KRAS (WT), GMPPNP. For low control, add 2.5 μL of assay buffer (no KRAS protein). Pre-incubate assay plate for 30 minutes at room temperature. Following pre-incubation of test compound or DMSO with Biotin-KRAS (G12D/V),GMPPNP loaded or Biotin-KRAS (WT),GMPPNP, a volume of 2.5 μL of 4× FLAG cRAF RBD Solution was added to each well of the assay plate for a final concentration of 100 nM FLAG CRAF RBD. The assay plate was subjected to centrifuge at 1000 rpm for 1 minute and pre-incubate assay plate for 150 minutes at room temperature. Following the pre-incubation with FLAG cRAF RBD, a volume of 5 μl of 2× Detection Mixture was added to each well of the assay plate for a final concentration of 1 nM Tb-anti-FLAG and 5 nM SA-XL665. The assay plate was centrifuged at 1000 rpm for 1 minute and incubated for 90 minutes at room temperature. TR-FRET signal was measured on a BioTek Synergy Neo2 microplate reader (excitation at 340 nm, emission at 665 nn and 620 nm).
(§6) TR-FRET ratios were calculated by dividing the acceptor emission value (665 nm) by the donor emission value (620 nm) for each sample.
(§7) Percent inhibition was calculated by multiplying the normalized TR-FRET ratio by 100, where TR-FRET ratio^HIGH was the TR-FRET ratio obtained from wells with 1% DMSO and complete reaction mixture, TR-FRET ratio^LOW was the ratio obtained from wells with 1% DMSO and reaction mixture without KRAS protein and TR-FRET ratio^SAMPLE was the TR-FRET ratio from wells with test compound and complete reaction mixture. The IC50 values were calculated from normalized TR-FRET ratios with the Levenberg-Marquardt 4 parameter fitting procedure.
(§8) This assay quantifies the interaction of a KRAS mutant protein (e.g., G12V) with the CRAF Ras-binding domain (RBD). […]

For experiment [1], the system named is KRAS G12V dependent lung adenocarcinoma cell line, NCI-H441. The experiment can be described thus: Cellular pERK (Thr202/Tyr204) FRET/HTRF assay. It counts as cell-based. The conditions noted are these: Homo sapiens, NCI-H441, pERK HTRF, NCI-H441 cells (KRAS G12V). The method in brief:
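NCI-H441 cells (KRAS G12V) were seeded and grown overnight at 37 °C, 5% CO2, then treated with compound in DMSO for 1 hr. Lysates were probed with a Eu3+-cryptate/d2 antibody sandwich against pERK1/2 Thr202/Tyr204 and read by HTRF at 665 nm; IC50 from curve fitting.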
Background: TR-FRET usually uses a lanthanide donor and a delayed reading to cut background.

In another experiment the target is KRAS (G12D)/CRAF (Homo sapiens (Human), UniProt P01116, G12D). The experiment can be described thus: TR-FRET biochemical KRAS:CRAF protein:protein interaction assay, KRAS (G12D). It counts as binding. The conditions noted are these: GMPPNP loaded Biotin-KRAS (G12D), FLAG CRAF RBD; read-out: TR-Fret_PPI KRAS (G12D)/CRAF IC50. The protocol: as §1, §2, §3, §4, §5, §6, §7, §8
KRAS (G12D)/CRAF, sequence (P01116-2 other isoform, or with tags, fused parts or gaps G12D): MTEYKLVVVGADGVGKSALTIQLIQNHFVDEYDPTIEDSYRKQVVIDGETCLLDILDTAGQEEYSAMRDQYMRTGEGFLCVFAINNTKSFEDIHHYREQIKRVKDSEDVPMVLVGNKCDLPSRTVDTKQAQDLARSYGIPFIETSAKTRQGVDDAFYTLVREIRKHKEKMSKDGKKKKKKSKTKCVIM

On to `C#Cc1c(F)ccc2cc(N)cc(-c3ncc4c(N5CCCC[C@H]6C[C@H]65)nc(OC[C@@]56CCCN5C[C@H](F)C6)nc4c3F)c12` [Example 5, 4-(4-((1R,7S)-2-azabicyclo[5.1.0]octan-2-yl)-8-fluoro-2-(((2R,7aS)-2-fluorotetrahydro-1H-pyrrolizin-7a(5H)-yl)methoxy)pyrido[4,3-d]pyrimidin-7-yl)-5-ethynyl-6-fluoronaphthalen-2-amine], for which the values for the IC50 (at KRAS (G12V)/CRAF; in experiment [1]; at KRAS (G12D)/CRAF) were 234 nM, below 50 nM and 24.2 nM, respectively.

As for `[2H]C([2H])(Oc1nc(N2CCCC[C@H]3C[C@H]32)c2cnc(-c3cc(N)cc4cc(F)c(F)c(C#C)c34)c(F)c2n1)[C@@]12CCCN1C[C@H](F)C2` [Example 8, 4-(4-((1R,7S)-2-azabicyclo[5.1.0]octan-2-yl)-8-fluoro-2-(((2R,7aS)-2-fluorotetrahydro-1H-pyrrolizin-7a(5H)-yl)methoxy-d2)pyrido[4,3-d]pyrimidin-7-yl)-5-ethynyl-6,7-difluoronaphthalen-2-amine], the results for the IC50 (at KRAS (G12V)/CRAF; in experiment [1]; at KRAS (G12D)/CRAF) were 213 nM, below 50 nM and 27.5 nM, respectively.

In the case of `[2H]C([2H])(Oc1nc(N2CCCC[C@H]3[C@@H](F)[C@H]32)c2cnc(-c3cc(N)cc4cc(F)c(F)c(C#C)c34)c(F)c2n1)[C@@]12CCCN1C[C@H](F)C2` [Example 13, 5-Ethynyl-6,7-difluoro-4-(8-fluoro-4-((1S,7R,8R)-8-fluoro-2-azabicyclo[5.1.0]octan-2-yl)-2-(((2R,7aS)-2-fluorotetrahydro-1H-pyrrolizin-7a(5H)-yl)methoxy-d2)pyrido[4,3-d]pyrimidin-7-yl)naphthalen-2-amine], the results for the IC50 (at KRAS (G12V)/CRAF; in experiment [1]; at KRAS (G12D)/CRAF) were 2830 nM, 50 to 500 nM and 430 nM, respectively.

Consider `[2H]C([2H])(Oc1nc(N2CCCC[C@@H]3[C@H](F)[C@@H]32)c2cnc(-c3cc(N)cc4cc(F)c(F)c(C#C)c34)c(F)c2n1)[C@@]12CCCN1C[C@H](F)C2` [Example 14, 5-Ethynyl-6,7-difluoro-4-(8-fluoro-4-((1R,7S,8S)-8-fluoro-2-azabicyclo[5.1.0]octan-2-yl)-2-(((2R,7aS)-2-fluorotetrahydro-1H-pyrrolizin-7a(5H)-yl)methoxy-d2)pyrido[4,3-d]pyrimidin-7-yl)naphthalen-2-amine], for which the IC50 was at least 10000 nM on KRAS (G12V)/CRAF, 500 to 10000 nM in experiment [1] and at least 10000 nM at KRAS (G12D)/CRAF.

With `[2H]C([2H])(Oc1nc(N2CCCC[C@@H]3[C@@H](F)[C@@H]32)c2cnc(-c3cc(N)cc4cc(F)c(F)c(C#C)c34)c(F)c2n1)[C@@]12CCCN1C[C@H](F)C2` [Example 15, 5-Ethynyl-6,7-difluoro-4-(8-fluoro-4-((1R,7S,8R)-8-fluoro-2-azabicyclo[5.1.0]octan-2-yl)-2-(((2R,7aS)-2-fluorotetrahydro-1H-pyrrolizin-7a(5H)-yl)methoxy-d2)pyrido[4,3-d]pyrimidin-7-yl)naphthalen-2-amine], the IC50 is at least 10000 nM on KRAS (G12V)/CRAF, 500 to 10000 nM in experiment [1] and at least 10000 nM at KRAS (G12D)/CRAF.

As for `[2H]C([2H])(Oc1nc(N2CCOC[C@H]3C[C@H]32)c2cnc(-c3cc(N)cc4cc(F)c(F)c(C#C)c34)c(F)c2n1)[C@@]12CCCN1C[C@H](F)C2` [Example 62, 4-(4-((1R,7S)-5-oxa-2-azabicyclo[5.1.0]octan-2-yl)-8-fluoro-2-(((2R,7aS)-2-fluorotetrahydro-1H-pyrrolizin-7a(5H)-yl)methoxy-d2)pyrido[4,3-d]pyrimidin-7-yl)-5-ethynyl-6,7-difluoronaphthalen-2-amine], the IC50 at KRAS (G12V)/CRAF was 443 nM; in experiment [1], 50 to 500 nM; on KRAS (G12D)/CRAF it was 62.6 nM.
